Where “and” joins values, the source holds several entries; their conditions need not be identical. Equal values may be shown once.
Columns and labels:
[1] = Inner ear pharmacokinetics after transtympanic administration (perilymph, plasma; LC-MS/MS); assay type: in vivo, guinea pig
Experimental: Female albino Hartley guinea pigs, 250 g, from Charles River (France), housed in macrolon cages (2/cage; Innocage Rat Static-Innovive, Paris) with filter air, were maintained at 22 ± 2°C on a 12-h light cycle with standard A04C (UAR) diet and water “ad libitum.” Lgr5-GFP mice containing an EGFP-IRES-CreERT2 knock-in allele at the Lgr5 locus were obtained from the Jackson Labs (Stock 008875, C57BL/6J/RccHsd background). Atoh1-nGFP transgenic mice (C57Bl/6J background) were from Jane Johnson ([Lumpkin et al., 2003]). Wistar rats were obtained from Charles River.
γ-secretase inhibitors pharmacokinetic studies tested CPD3, CPD8 (Eli Lilly) or LY411575 (Stemcell Technologies) each formulated at 3.4 mg/ml in the following vehicles, 10% Poloxamer 338 (Sigma), 20% Poloxamer 338, 70% PEG400 (Sigma) or 1% hyaluronic acid (HA-700; Lifecore, Chaska, MN, United States) all prepared with PBS (pH 6.2). A single 70 μl injection of the formulated compound (total dose, 870 μg/kg) was delivered to the middle ear space of isoflurane-anesthetized guinea pigs by transtympanic administration. Perilymph from treated animals (perilymph volumes, >2 μl) was collected at time points up to 48 h post-administration (CILcare, Montpellier, France). Briefly, concentrations of each compound in perilymph and plasma, as well as controls prepared in artificial perilymph, were measured by LC-MS/MS on an AB Sciex, API 4000 mass spectrometer using an Onyx C18 5 μm 50^∗2.0 mm separation column (Oroxcell, Romainville, France).
To verify this, in vivo compound concentrations were measured in perilymph of guinea pigs after intratympanic delivery of GSIs into the middle ear. Initially, four vehicle formulations, with different physical properties, were tested, poloxamer 338 (POX; at 10% or 20%), hyaluronic acid (HA), or polyethylene glycol 400 (PEG). For this comparison only one GSI was prepared in each formulation (CPD3, 3.4 mg/ml) and a single dose was injected into the middle ear. Perilymph and plasma were sampled for 48 h (Figure 1D). […] Next, using only 10% POX as vehicle, inner ear adsorption was compared between CPD3, CPD8, and LY411575 by transtympanic injections (Figure 1D, inset). […] Each compound achieved levels several folds above their respective IC50s. The mean maximal perilymph concentration of CPD3 at 0.5 h post-dosing was 85,489 ng/ml (183 μM), then declined at 1 h to 12,928 ng/ml (27.7 μM), and at 6 h to 12,652 ng/ml (27.1 μM). GSIs in plasma samples were not detected (data not shown).

[2] = test system: Myo7a+ hair cells and Sox2+ cells in sisomicin-damaged rat cochlear organoids; assay: Rat cochlear organoids after sisomicin damage; assay type: cell-based
Experimental: On day 0, the cochlear sensory epithelium was dissected and the OC was separated from the modiolus and stria vascularis, as described above, from either Wistar rat pups (P2), Lgr5-GFP mice (P0–P2) or Atoh1-GFP mice (P0–P2). To separate the sensory epithelial layer from underlying mesenchyme and neurons, the OC was placed in a 100 μl drop of Matrisperse Cell Recovery Solution (Corning) for 1 h at RT, then delaminated with the aid of forceps. Gentle enzymatic dissociation of hair cells and supporting cells followed with 100 μl drop of TrypLE (Gibco), 20 min at 37°C, then mechanical trituration in DMEM/F12. The cell suspension was centrifuged for 5 min at 500 g at 4°C and resuspended in DMEM/F12 medium supplemented with B27 and N2 (Invitrogen), EGF (50 ng/ml), bFGF (50 ng/ml), IGF (25 ng/ml), CHIR99021 (GSK-3β inhibitor, 3 μM, Merck), valproic acid (HDAC inhibitor, 1 mM, Sigma), 2-phospho-L-ascorbic acid (280 μM, Stemcell Technologies) and 0.01% ampicillin (Sigma). Cells were plated at 2,000 cells per well on 96 wells plate (Corning Costar; ultra-low attachment, round-bottom) to allow aggregation at 37°C. On day 1, Matrigel (GF-depleted, Corning; 2% stock) was added to a final concentration of 0.18 mg/ml. […]
For staining and imaging, organoids were allowed to adhere ON onto transwell-permeable support membranes (Corning) in 12-well plates coated with 100% Matrigel. […] Compiled Z-projections were processed (FIJI, ver2.0) and hair cells quantified on individual planes with manual cell counter plugin, by evaluation of cytosolic expression and nuclear exclusion of Myo7a. […]
Finally, the regenerative potential of CPD3 was assessed with rat cochlear organoids testing the efficacy of CPD3 to transdifferentiate any remaining supporting cells after ototoxic damage. […] A decrease in Myo7a+ hair cells was detected 7 days following sisomicin damage (Figure 6D). […]

[3] = female, Hartley, guinea pig, perilymph, other: transtympanic (middle ear injection), 870 μg/kg, 10% POX vehicle, transtympanic

Time at which mean maximal perilymph concentration was reached ([1]; 10% POX and 20% POX formulations, post-dosing): 0.5 h
Mean maximal perilymph concentration at 0.5 h post-dosing ([1]; 10% POX vehicle, transtympanic): 85,489 ng/ml and 183 μM
Perilymph concentrations quantifiable ([1]; 10% POX, sampled at 0.5, 1 and 6 h post-dosing): quantifiable at all time points
concentration at 1 h [1, 3]: 12900 ng/mL and 27.7 µM
concentration at 6 h [1, 3]: 12700 ng/mL and 27.1 µM
SMILES: COc1ccc2c(c1)N1CCC(C)(C)C1=CC(=O)[C@H]2NC(=O)[C@H](C)NC(=O)CCC(F)(F)F [CPD3]
concentration at 48 h ([1]; female, Hartley, guinea pig, perilymph, other: transtympanic (middle ear injection), 870 μg/kg, single transtympanic dose 3.4 mg/ml, 70 μl, span over the vehicle formulations (10% POX, 20% POX, HA, PEG400)): 485 ng/mL to 1000 ng/mL and 1 µM to 2.1 µM
Total number of Sox2 positive cells in the organoid ([2]; after sisomicin damage): did not change
Number of Myo7a+/Sox2+ hair cells ([2]; after sisomicin damage, p < 0.001): did increase
Myo7a+ hair cells after sisomicin damage ([2]; sisomicin 500 μM 2 h at day 20, 7 days culture, vs sisomicin only, p < 0.001): significant increase

From PMC8414802, “Hair Cell Generation in Cochlear Culture Models Mediated by Novel γ-Secretase Inhibitors” (Frontiers in Cell and Developmental Biology, 2021)
